Assays:
K-Ras G12D = biological target: T1, K-Ras G12D (Homo sapiens, UniProt P01116, G12D); assay: HTRF resonance energy transfer assay, K-Ras G12D / SOS1 interaction; format: biochemical; conditions: HTRF assay of Example 5; read-out: IC50 against K-Ras G12D
T1 construct: made in house; host or cells: E. coli BL21 (DE3)
Method in brief: (§1)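 Compounds, tested in duplicate at 10 μM down to 0.01 μM, were read after about 10 min or more by HTRF as the 665/620 nm emission ratio (337 nm excitation) to derive IC50. This ratio reports FRET between an anti-GST-Eu donor on GST-K-Ras (wild-type or mutant) and an anti-6His-XL665 acceptor on His-hSOS1. Buffer: ~5 mM HEPES pH 7.4, 150 mM NaCl, 1 mM DTT, 0.05% BSA, 0.0025% Igepal.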

K-Ras G12S = biological target: T2, K-Ras G12S (Homo sapiens, UniProt P01116, G12S); assay: HTRF resonance energy transfer assay, K-Ras G12S / SOS1 interaction; format: biochemical; conditions: HTRF assay of Example 5; read-out: IC50 against K-Ras G12S
T2 construct: made in house; host or cells: E. coli BL21 (DE3)
Method in brief: as §1

K-Ras G12V = biological target: T3, K-Ras G12V (Homo sapiens, UniProt P01116, G12V); assay: HTRF resonance energy transfer assay, K-Ras G12V / SOS1 interaction; format: biochemical; conditions: HTRF assay of Example 5; read-out: IC50 against K-Ras G12V
T3 construct: made in house; host or cells: E. coli BL21 (DE3)
Method in brief: as §1

K-Ras WT = biological target: T4, K-Ras WT (Homo sapiens, UniProt P01116); assay: HTRF resonance energy transfer assay, K-Ras WT / SOS1 interaction; format: biochemical; conditions: HTRF assay of Example 5; read-out: IC50 against K-Ras WT
T4 construct: made in house; host or cells: E. coli BL21 (DE3)
Method in brief: as §1

GP2D cells = assay: Ras cellular assay, growth of cells with K-Ras G12D mutation (CellTiter-Glo); format: cell-based; conditions: cell growth, Example 9, G12D mutation, read-out: IC50 against GP2D cells
A549 cells = assay: Ras cellular assay, growth of cells with K-Ras G12S mutation (CellTiter-Glo); format: cell-based; conditions: Homo sapiens, cell growth, Example 9, G12S mutation, read-out: IC50 against A549 cells
Method in brief: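 Growth inhibition IC50 values come from four-parameter fits of CellTiter-Glo luminescence, read about 6 days after compound addition. G12S-mutant A549 cells (e.g. 800/well, RPMI-1640 + 10% heat-inactivated FBS) were plated in tissue-culture-treated or ultra-low-attachment 384-well format. Dosing began the following day with serial dilutions, e.g. 10 points, 3-fold.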

SW620 cells = assay: Ras cellular assay, growth of cells with K-Ras G12V mutation (CellTiter-Glo); format: cell-based; conditions: Homo sapiens, SW-620; cell growth, Example 9, G12V mutation; read-out: IC50 against SW620 cells
Method in brief: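 IC50 values came from a four-parameter fit of CellTiter-Glo viability, read roughly 6 days after dosing with e.g. a 10-point threefold dilution series. G12V-mutant SW620 cells (e.g. 800 per well) had been plated the previous day in RPMI-1640/10% heat-inactivated FBS, on tissue culture-treated or ultra-low attachment plates.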

T3 sequence (P01116 1-188 isoform P01116-2 G12V): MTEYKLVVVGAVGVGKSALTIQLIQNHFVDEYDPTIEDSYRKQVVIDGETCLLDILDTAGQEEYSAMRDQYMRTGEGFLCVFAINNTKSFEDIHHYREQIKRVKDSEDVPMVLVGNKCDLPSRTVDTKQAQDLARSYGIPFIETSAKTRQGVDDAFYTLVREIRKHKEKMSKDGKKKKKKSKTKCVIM
T4 sequence (P01116 1-188 isoform P01116-2): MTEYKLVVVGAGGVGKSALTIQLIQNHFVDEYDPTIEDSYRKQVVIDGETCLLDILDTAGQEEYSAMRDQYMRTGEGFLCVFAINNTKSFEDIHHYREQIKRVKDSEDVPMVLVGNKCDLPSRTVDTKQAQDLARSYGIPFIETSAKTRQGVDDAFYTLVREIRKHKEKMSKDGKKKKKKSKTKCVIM
T2 sequence (P01116 1-188 isoform P01116-2 G12S): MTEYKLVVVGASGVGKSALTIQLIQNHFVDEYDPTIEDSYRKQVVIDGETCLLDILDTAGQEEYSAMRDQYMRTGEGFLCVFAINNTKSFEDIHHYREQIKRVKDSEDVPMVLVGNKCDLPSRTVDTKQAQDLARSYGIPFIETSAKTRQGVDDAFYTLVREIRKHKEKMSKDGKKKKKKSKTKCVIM
T1 sequence (P01116 1-188 isoform P01116-2 G12D): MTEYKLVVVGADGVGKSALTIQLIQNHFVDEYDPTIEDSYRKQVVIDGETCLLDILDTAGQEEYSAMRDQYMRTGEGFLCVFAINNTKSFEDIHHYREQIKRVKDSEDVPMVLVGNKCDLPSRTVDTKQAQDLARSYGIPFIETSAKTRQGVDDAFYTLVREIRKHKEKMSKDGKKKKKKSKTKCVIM

Row | Structure (SMILES) | IC50 (K-Ras G12D) | IC50 (K-Ras G12S) | IC50 (K-Ras G12V) | IC50 (K-Ras WT) | IC50 (GP2D cells) | IC50 (A549 cells) | IC50 (SW620 cells)
1 | N#Cc1c(N)sc2c(F)ccc(-c3c(Cl)c4c5c(nc(OC[C@@]67CCCN6C[C@H](F)C7)nc5c3F)N(CC(F)F)C(CCO)CO4)c12 (single isomer, unassigned) [Compound 1049] | < 100 nM | < 100 nM | < 100 nM | < 100 nM | < 500 nM | < 5000 nM | < 5000 nM
2 | N#Cc1c(N)sc2c(F)ccc(-c3c(Cl)c4c5c(nc(OC[C@@]67CCCN6C[C@H](F)C7)nc5c3F)N(CC(F)F)CCC(CO)O4)c12 (single isomer, unassigned) [Compound 1207] | < 100 nM | < 100 nM | < 100 nM | < 100 nM | < 500 nM | < 5000 nM | < 5000 nM
3 | N#Cc1c(N)sc2c(F)ccc(-c3c(Cl)c4c5c(nc(OC[C@@]67CCCN6C[C@H](F)C7)nc5c3F)N(C3CC(NC(=O)C(F)F)C3)CCO4)c12 (stereo partly drawn) [Compound 612, N-(3-(9-(2-amino-3-cyano-7-fluorobenzo[b]thiophen-4-yl)-8-chloro-10-fluoro-2-(((2R,7aS)-2-fluorotetrahydro-1H-pyrrolizin-7a(5H)-yl)methoxy)-5,6-dihydro-4H-[1,4]oxazepino[5,6,7-de]quinazolin-4-yl)cyclobutyl)-2,2-difluoroacetamide] | < 100 nM | < 100 nM | < 100 nM | < 100 nM | < 500 nM | < 5000 nM | < 5000 nM
4 | CN(CCN1CCOc2c(Cl)c(-c3ccc(F)c4sc(N)c(C#N)c34)c(F)c3nc(OC[C@@]45CCCN4C[C@H](F)C5)nc1c23)C(=O)[C@@H]1N[C@H]1C1CC1 [Compound 613, (2R,3S)-N-(2-(9-(2-amino-3-cyano-7-fluorobenzo[b]thiophen-4-yl)-8-chloro-10-fluoro-2-(((2R,7aS)-2-fluorotetrahydro-1H-pyrrolizin-7a(5H)-yl)methoxy)-5,6-dihydro-4H-[1,4]oxazepino[5,6,7-de]quinazolin-4-yl)ethyl)-3-cyclopropyl-N-methylaziridine-2-carboxamide] | < 100 nM | < 100 nM | < 100 nM | < 100 nM | < 500 nM | < 5000 nM | < 5000 nM
5 | N#Cc1c(N)sc2c(F)ccc(-c3c(Cl)c4c5c(nc(OC[C@@]67CCCN6C[C@H](F)C7)nc5c3F)N([C@@H]3CCOC3)CCO4)c12 [Compound 617, 2-amino-4-(8-chloro-10-fluoro-2-(((2R,7aS)-2-fluorotetrahydro-1H-pyrrolizin-7a(5H)-yl)methoxy)-4-((R)-tetrahydrofuran-3-yl)-5,6-dihydro-4H-[1,4]oxazepino[5,6,7-de]quinazolin-9-yl)-7-fluorobenzo[b]thiophene-3-carbonitrile] | < 100 nM | < 100 nM | < 100 nM | < 100 nM | < 500 nM | < 5000 nM | < 5000 nM
6 | C[C@H](Oc1nc2c3c(c(Cl)c(-c4ccc(F)c5sc(N)c(C#N)c45)c(F)c3n1)OCCN2[C@@H]1CCN(C=O)C1)[C@@H]1CCCN1C [Compound 621, 2-amino-4-(8-chloro-10-fluoro-4-((R)-1-formylpyrrolidin-3-yl)-2-((S)-1-((S)-1-methylpyrrolidin-2-yl)ethoxy)-5,6-dihydro-4H-[1,4]oxazepino[5,6,7-de]quinazolin-9-yl)-7-fluorobenzo[b]thiophene-3-carbonitrile] | < 100 nM | < 100 nM | < 100 nM | < 100 nM | < 500 nM | < 5000 nM | < 5000 nM
7 | CN1CCC(N2CCOc3c(Cl)c(-c4ccc(F)c5sc(N)c(C#N)c45)c(F)c4nc(OC[C@@]56CCCN5C[C@H](F)C6)nc2c34)C1=O (stereo partly drawn) [Compound 624, 2-amino-4-(8-chloro-10-fluoro-2-(((2R,7aS)-2-fluorotetrahydro-1H-pyrrolizin-7a(5H)-yl)methoxy)-4-(1-methyl-2-oxopyrrolidin-3-yl)-5,6-dihydro-4H-[1,4]oxazepino[5,6,7-de]quinazolin-9-yl)-7-fluorobenzo[b]thiophene-3-carbonitrile] | < 100 nM | < 100 nM | < 100 nM | < 100 nM | < 500 nM | < 5000 nM | < 5000 nM
8 | N#Cc1c(N)sc2c(F)ccc(-c3c(Cl)c4c5c(nc(OC[C@@]67CCCN6C[C@H](F)C7)nc5c3F)N(C3CCOC3)CC(CF)O4)c12 (stereo partly drawn) [Compound 628, 2-amino-4-(8-chloro-10-fluoro-6-(fluoromethyl)-2-(((2R,7aS)-2-fluorotetrahydro-1H-pyrrolizin-7a(5H)-yl)methoxy)-4-(tetrahydrofuran-3-yl)-5,6-dihydro-4H-[1,4]oxazepino[5,6,7-de]quinazolin-9-yl)-7-fluorobenzo[b]thiophene-3-carbonitrile] | < 100 nM | < 100 nM | < 100 nM | < 100 nM | < 500 nM | < 5000 nM | < 5000 nM
9 | CNC(=O)C1CCC(N2CCOc3c(Cl)c(-c4ccc(F)c5sc(N)c(C#N)c45)c(F)c4nc(OC[C@@]56CCCN5C[C@H](F)C6)nc2c34)C1 (stereo partly drawn) [Compound 633, 3-(9-(2-amino-3-cyano-7-fluorobenzo[b]thiophen-4-yl)-8-chloro-10-fluoro-2-(((2R,7aS)-2-fluorotetrahydro-1H-pyrrolizin-7a(5H)-yl)methoxy)-5,6-dihydro-4H-[1,4]oxazepino[5,6,7-de]quinazolin-4-yl)-N-methylcyclopentane-1-carboxamide] | < 100 nM | < 100 nM | < 100 nM | < 100 nM | < 500 nM | < 5000 nM | < 5000 nM
10 | Cn1ncc(C#N)c1CN1CCOc2c(Cl)c(-c3ccc(F)c4sc(N)c(C#N)c34)c(F)c3nc(OC[C@@]45CCCN4C[C@H](F)C5)nc1c23 [Compound 641, 5-((9-(2-amino-3-cyano-7-fluorobenzo[b]thiophen-4-yl)-8-chloro-10-fluoro-2-(((2R,7aS)-2-fluorotetrahydro-1H-pyrrolizin-7a(5H)-yl)methoxy)-5,6-dihydro-4H-[1,4]oxazepino[5,6,7-de]quinazolin-4-yl)methyl)-1-methyl-1H-pyrazole-4-carbonitrile] | < 100 nM | < 100 nM | < 100 nM | < 100 nM | < 500 nM | < 5000 nM | < 5000 nM
11 | N#CCCN1CCOc2c(Cl)c(-c3ccc(F)c4sc(N)c(C#N)c34)c(F)c3nc(OC[C@@]45CCCN4C[C@H](F)C5)nc1c23 [Compound 648, 2-amino-4-(8-chloro-4-(2-cyanoethyl)-10-fluoro-2-(((2R,7aS)-2-fluorotetrahydro-1H-pyrrolizin-7a(5H)-yl)methoxy)-5,6-dihydro-4H-[1,4]oxazepino[5,6,7-de]quinazolin-9-yl)-7-fluorobenzo[b]thiophene-3-carbonitrile] | < 100 nM | < 100 nM | < 100 nM | < 100 nM | < 500 nM | < 5000 nM | < 5000 nM

— patent US12209102B2, “Heterocyclic compounds and uses thereof” (Kumquat Biosciences Inc., priority 2022, dated 2025)
